From US8735391B2, “Synthesis of functionalized octahydro-isoquinolin-1-one-8-carboxamides, octahydro-isoquinolin-1-one-8-carboxylic esters and analogs, and therapeutic methods” (University of Kansas, priority 2008, dated 2014) come the findings set out here.

One assay addresses DOR (Homo sapiens, UniProt P41143). The experiment in a line: Opioid secondary binding, DOR (Table 4). The conditions noted are these: Opioid secondary binding activity for Formula 10 analogs.
Assay [1] addresses T1, KOR (Homo sapiens, UniProt P41145). The experiment in a line: Opioid secondary binding, KOR (Tables 4, 5, 8, 9). As to conditions: Opioid secondary binding activity for Formula 10 analogs; read-out: KOR, Ki.
Assay [2] concerns the target T1, KOR. The experiment in a line: [35S]GTPγS binding functional agonist assay on membranes of CHO cells expressing hKOR (reference agonist U69593). Details: expressed in transfected cells; host or cells: CHO cells, stably transfected; crude membrane fractions. As to conditions: test compound at 10 micromolar; N=4; reference agonist = 100%; CHO-cell line expressing hKOR. Type of assay: biochemical. The protocol: The compounds prepared herein were tested for bioactivity with opioid receptors. Agonist assays: Data represent the percent efficacy (relative to cognate agonist) of the test compound at 10 micromolar. The response to a saturating concentration of a reference antagonist or to vehicle (usually none or negligible) is set to 0%. […] The response inhibition elicited by a saturating concentration of reference antagonist is set to 100%; the response inhibition (usually none or negligible) elicited by vehicle is set to 0%. The following tables provide data related to the bioactivity for opioid receptors of the compounds described herein.
Table 6 provides data that represent the average percent efficacy (N=4; relative to cognate agonist) of the test compound at 10 micromolar concentration. The response to a saturating concentration of cognate/reference agonist is set to 100%; the response to a saturating concentration of a reference antagonist or to vehicle (usually none or negligible) is set to 0%. All functional assays are performed on stably transfected CHO-cell lines expressing hKOR, hMOR or hDOR.
(§1) Serial dilutions of the test and reference compounds are made in binding buffer at 2× assay concentration (final assay concentrations ranging from 0.1 nM to 10 μM). Crude membrane fractions (1.8 to 3.5 cm2/well) (prepared from 10-cm plates by harvesting PBS-rinsed monolayers, resuspending and lysing in chilled, hypotonic 50 mM Tris-HCl, pH 7.4, centrifuging at 20,000×g, decanting the supernatant and storing at −80 degrees centigrade; typically, one 10-cm plate provides sufficient material for 24 wells) are resuspended in 1.2 ml of assay buffer containing 20 μM GDP, wheat germ agglutinin (WGA)-coated scintillation proximity beads (2.4 mg), and [35S]GTPγS (300 pM final). The suspension is then added (50 μl/well) to 50 μl of the 2× test or reference compounds (each concentration assayed in triplicate) in flexible transparent PET 96-well plates. The reaction plate is sealed and incubated for 90 min at room temperature, then centrifuged for 5 min at 216×g, and finally loaded into a Wallac MicroBeta TriLux counter. Non-specific [35S]GTPγS binding is assessed at the maximum concentration of reference agonist in the presence of 10 μM antagonist. The background signal is measured at 10 μM reference agonist in the presence of 10 μM unlabeled GTPγS. Raw data (dpm) representing total [35S]GTPγS binding (i.e., specific+non-specific binding) are calculated as a percentage of the maximum response by the reference agonist (in this case U69593).
as §1, with “GTPγS.” for “GTPγS. Raw data (dpm) representing total [35S]GTPγS binding (i.e., specific+non-specific binding) are calculated as a percentage of the maximum response by the reference agonist (in this case U69593).”
(GTPγS resists hydrolysis and so accumulates on activated G proteins.)

T1 sequence (P41145 whole entry): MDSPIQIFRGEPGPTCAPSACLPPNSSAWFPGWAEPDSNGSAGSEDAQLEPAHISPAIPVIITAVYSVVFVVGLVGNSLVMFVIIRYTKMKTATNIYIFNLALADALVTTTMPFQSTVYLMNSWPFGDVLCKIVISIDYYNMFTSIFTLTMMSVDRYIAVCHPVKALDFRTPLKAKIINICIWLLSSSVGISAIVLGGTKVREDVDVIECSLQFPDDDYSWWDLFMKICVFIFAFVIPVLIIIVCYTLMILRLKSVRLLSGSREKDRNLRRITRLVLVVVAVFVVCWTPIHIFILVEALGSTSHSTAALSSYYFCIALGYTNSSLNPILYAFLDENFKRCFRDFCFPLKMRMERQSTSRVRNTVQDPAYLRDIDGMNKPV
Chain of DOR (P41143 whole entry): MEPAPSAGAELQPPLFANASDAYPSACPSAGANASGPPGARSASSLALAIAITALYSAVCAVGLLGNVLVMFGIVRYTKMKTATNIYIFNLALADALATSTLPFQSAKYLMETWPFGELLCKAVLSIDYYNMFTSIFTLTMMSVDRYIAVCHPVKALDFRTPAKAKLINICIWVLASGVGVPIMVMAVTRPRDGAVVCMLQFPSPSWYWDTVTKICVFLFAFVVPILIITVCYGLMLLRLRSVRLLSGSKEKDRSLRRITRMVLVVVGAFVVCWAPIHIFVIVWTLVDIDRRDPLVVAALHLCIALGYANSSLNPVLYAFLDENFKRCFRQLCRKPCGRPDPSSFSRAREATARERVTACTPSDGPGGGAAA

Regarding `CC(c1ccccc1)N1CCC2C=CCC(C(=O)NC3CCCCC3)C2C1=O` (mixture of isomers) [compound 12163], the Ki – broadly, a dissociation constant, usually derived from enzyme kinetics or from competition with a known ligand – was 1160 nM at DOR and 5910 nM at KOR [1].

In the case of `CC(c1ccccc1)N1CCC2C=CCC(C(=O)Nc3ccccc3)C2C1=O` (mixture of isomers) [compound 12164], the Ki at DOR turned out to be 1380 nM; on KOR [1] it was 4780 nM.

In the case of `O=C([C@@H]1CC=C[C@@H]2CCN(C3CC3)C(=O)[C@@H]21)N1CCOCC1` (racemic) [compound 8909], the “KOR agonist (average percent efficacy relative to cognate agonist)” value at KOR [2] is listed as 7.8%.

As to `O=C([C@@H]1CC=C[C@@H]2CCN(C3CCCCC3)C(=O)[C@@H]21)N1CCOCC1` (racemic) [compound 8910], the “KOR agonist (average percent efficacy relative to cognate agonist)” value on KOR [2] came out at 42.7%. Further, the Ki on KOR [1] is 2950 nM.

On to `CCCCN1CC[C@H]2C=CC[C@@H](C(=O)N3CCOCC3)[C@H]2C1=O` (racemic) [compound 8911], for which the “KOR agonist (average percent efficacy relative to cognate agonist)” value on KOR [2] is on record as 8.3%.

For `O=C([C@@H]1CC=C[C@@H]2CCN(C3CC3)C(=O)[C@@H]21)N1CCN(c2ccccc2)CC1` (racemic) [compound 8913], the “KOR agonist (average percent efficacy relative to cognate agonist)” value at KOR [2] is on record as 27.5%. For the same compound, the Ki at KOR [1] was found to be 3190 nM.

As to `CCCCN1CC[C@H]2C=CC[C@@H](C(=O)N3CCN(c4ccccc4)CC3)[C@H]2C1=O` (racemic) [compound 8914], the “KOR agonist (average percent efficacy relative to cognate agonist)” value at KOR [2] is on record as 9.9%.

In the case of `O=C(NCCc1ccccc1)[C@@H]1CC=C[C@@H]2CCN(C3CC3)C(=O)[C@@H]21` (racemic) [compound 8917], at KOR [2], the “KOR agonist (average percent efficacy relative to cognate agonist)” value is on record as 6.6%.

With `O=C(NC1CCCCC1)[C@@H]1CC=C[C@@H]2CCN(C3CC3)C(=O)[C@@H]21` (racemic) [compound 8921], the “KOR agonist (average percent efficacy relative to cognate agonist)” value at KOR [2] was 4.1%.

With `COc1ccc(CNC(=O)[C@@H]2CC=C[C@@H]3CCN(C4CC4)C(=O)[C@@H]32)cc1` (racemic) [compound 8925], the “KOR agonist (average percent efficacy relative to cognate agonist)” value on KOR [2] came out at 5.4%.

As for `CCCCN1CC[C@H]2C=CC[C@@H](C(=O)NCc3ccc(OC)cc3)[C@H]2C1=O` (racemic) [compound 8927], on KOR [2], the “KOR agonist (average percent efficacy relative to cognate agonist)” value is recorded as 8.7%.

Consider `COc1ccc(CNC(=O)[C@@H]2CC=C[C@@H]3CCN(Cc4ccc(OC)c(OC)c4)C(=O)[C@@H]32)cc1` (racemic) [compound 8929], for which the “KOR agonist (average percent efficacy relative to cognate agonist)” value on KOR [2] stood at 3.6%.

For the compound `O=C(NCc1cccnc1)[C@@H]1CC=C[C@@H]2CCN(C3CC3)C(=O)[C@@H]21` (racemic) [compound 8930], the “KOR agonist (average percent efficacy relative to cognate agonist)” value at KOR [2] worked out at 4%.

In the case of `COc1ccc(NC(=O)[C@@H]2CC=C[C@@H]3CCN(C4CC4)C(=O)[C@@H]32)cc1` (racemic) [compound 8944], at KOR [2], the “KOR agonist (average percent efficacy relative to cognate agonist)” value was determined as 1%.

Take `O=C(Nc1ccc(Cl)cc1Cl)[C@@H]1CC=C[C@@H]2CCN(C3CC3)C(=O)[C@@H]21` (racemic) [compound 8948]: the “KOR agonist (average percent efficacy relative to cognate agonist)” value on KOR [2] stood at 29.6%.

`O=C(Nc1ccc(Cl)c(C(F)(F)F)c1)[C@@H]1CC=C[C@@H]2CCN(Cc3ccc(Cl)c(Cl)c3)C(=O)[C@@H]21` (racemic) [compound 8957]: at KOR [2], the “KOR agonist (average percent efficacy relative to cognate agonist)” value was determined as 33.1%.

Regarding `Cc1ccc(NC(=O)[C@@H]2CC=C[C@@H]3CCN(Cc4ccccc4)C(=O)[C@@H]32)cc1Cl` (racemic) [compound 11931], the results for the Ki at DOR and at KOR [1] were 61 nM and 2570 nM, respectively.

Consider `O=C(Nc1ccc([N+](=O)[O-])c(C(F)(F)F)c1)[C@@H]1CC=C[C@@H]2CCN(Cc3ccccc3)C(=O)[C@@H]21` (racemic) [compound 11932], for which the values for the Ki at DOR and on KOR [1] were 41 nM and 200 nM, respectively.

For the compound `O=C(Nc1ccc(I)cc1)[C@@H]1CC=C[C@@H]2CCN(Cc3ccccc3)C(=O)[C@@H]21` (racemic) [compound 11954], the Ki amounted to 194 nM at DOR and 2820 nM on KOR [1].

Consider `O=C(NCc1cccc(Br)c1)[C@@H]1CC=C[C@@H]2CCN(Cc3ccccc3)C(=O)[C@@H]21` (racemic) [compound 11955], for which the values for the Ki on DOR and on KOR [1] were 438 nM and 3280 nM, respectively.

In the case of `O=C(Nc1ccc(Cl)cc1)[C@@H]1CC=C[C@@H]2CCN(Cc3ccccc3)C(=O)[C@@H]21` (racemic) [compound 12102], the Ki on DOR came out at 165 nM; at KOR [1], 5030 nM.

Take `O=C(NCc1ccc(Cl)c(Cl)c1)[C@@H]1CC=C[C@@H]2CCN(Cc3ccccc3)C(=O)[C@@H]21` (racemic) [compound 12148]: the Ki at DOR was determined as 644 nM; on KOR [1] it was 2780 nM.

For `O=C(Nc1ccc(Cl)c(C(F)(F)F)c1)[C@@H]1CC=C[C@@H]2CCN(Cc3cccc(Br)c3)C(=O)[C@@H]21` (racemic) [compound 12170], the values for the Ki at DOR and on KOR [1] were 1720 nM and 1460 nM, respectively.

Consider `O=C(Nc1ccc(Br)c(C(F)(F)F)c1)[C@@H]1CC=C[C@@H]2CCN(Cc3cccc(Br)c3)C(=O)[C@@H]21` (racemic) [compound 12171], for which the figures for the Ki at DOR and at KOR [1] were 503 nM and 694 nM, respectively.

Consider `Cc1ccc(NC(=O)[C@@H]2CC=C[C@@H]3CCN(Cc4ccccc4)C(=O)[C@@H]32)cc1C(F)(F)F` (racemic) [compound 13475], for which the Ki at DOR came out at 39 nM; on KOR [1] it was 1160 nM.

`O=C(Nc1ccc(Br)c(C(F)(F)F)c1)[C@@H]1CC=C[C@@H]2CCN(Cc3ccccc3F)C(=O)[C@@H]21` (racemic) [compound 13478]: the Ki worked out at 22 nM on DOR and 299 nM on KOR [1].

Consider `COc1ccccc1CN1CC[C@H]2C=CC[C@@H](C(=O)Nc3ccc(C)c(C(F)(F)F)c3)[C@H]2C1=O` (racemic) [compound 13481], for which the Ki is 1340 nM at DOR and 1900 nM at KOR [1].

Take `O=C(Nc1nccs1)[C@@H]1CC=C[C@@H]2CCCN(C3CCCCC3)C(=O)[C@@H]21` (racemic) [compound 14428]: on DOR, the affinity corresponds to a Ki of 2990 nM.

`O=C(Nc1ccccc1)[C@@H]1CC=C[C@@H]2CN(Cc3ccccc3)C(=O)[C@@H]21` (racemic) [compound 14429] returned a Ki at DOR of 7020 nM.

Take `O=C(Nc1ccc(Br)c(C(F)(F)F)c1)[C@@H]1CC=C[C@@H]2CN(Cc3ccccc3)C(=O)[C@@H]21` (racemic) [compound 14432]: on DOR, the Ki came to 2770 nM.

With `O=C(Nc1ccc(Cl)c(C(F)(F)F)c1)[C@@H]1CC=C[C@@H]2CN(Cc3ccccc3)C(=O)[C@@H]21` (racemic) [compound 14433], the Ki on DOR is 1940 nM.

The compound `O=C(Nc1ccccc1)[C@@H]1CC=C[C@@H]2CN(C3CCCCC3)C(=O)[C@@H]21` (racemic) [compound 14435] registered a Ki on DOR of 1610 nM.

On DOR, `O=C(NC1CCCCC1)[C@@H]1CC=C[C@@H]2CN(C3CCCCC3)C(=O)[C@@H]21` (racemic) [compound 14436] yielded a Ki of 2150 nM.

`O=C(Nc1cccc(Cl)c1)[C@@H]1CC=C[C@@H]2CN(C3CCCCC3)C(=O)[C@@H]21` (racemic) [compound 14437] registered a Ki at DOR of 962 nM.

As to `O=C(Nc1ccc(Br)c(C(F)(F)F)c1)[C@@H]1CC=C[C@@H]2CN(C3CCCCC3)C(=O)[C@@H]21` (racemic) [compound 14438], the Ki at DOR was 1920 nM.

On DOR, `O=C(Nc1ccc(Cl)c(C(F)(F)F)c1)[C@@H]1CC=C[C@@H]2CN(C3CCCCC3)C(=O)[C@@H]21` (racemic) [compound 14439] registered a Ki of 5350 nM.
